Test results as given in paper PMC6127842, “Identification of flavonolignans from Silybum marianum seeds as allosteric protein tyrosine phosphatase 1B inhibitors” (Journal of Enzyme Inhibition and Medicinal Chemistry, 2018).

Key:
[1] = biological target: T1, PTP1B (human recombinant) (Homo sapiens, UniProt P18031); assay: PTP1B inhibitory activity assay with p-NPP as substrate; format: biochemical; conditions: for IC50: p-NPP 4 mM, pH 6.0, 37 °C, 30 min, means ± SD, n = 3, NA = no activity >50 μM, read-out: IC50 against PTP1B
T1 construct: purchased Enzo Life Sciences, Inc. (Lausen, Switzerland)
T1 sequence (P18031 1-435): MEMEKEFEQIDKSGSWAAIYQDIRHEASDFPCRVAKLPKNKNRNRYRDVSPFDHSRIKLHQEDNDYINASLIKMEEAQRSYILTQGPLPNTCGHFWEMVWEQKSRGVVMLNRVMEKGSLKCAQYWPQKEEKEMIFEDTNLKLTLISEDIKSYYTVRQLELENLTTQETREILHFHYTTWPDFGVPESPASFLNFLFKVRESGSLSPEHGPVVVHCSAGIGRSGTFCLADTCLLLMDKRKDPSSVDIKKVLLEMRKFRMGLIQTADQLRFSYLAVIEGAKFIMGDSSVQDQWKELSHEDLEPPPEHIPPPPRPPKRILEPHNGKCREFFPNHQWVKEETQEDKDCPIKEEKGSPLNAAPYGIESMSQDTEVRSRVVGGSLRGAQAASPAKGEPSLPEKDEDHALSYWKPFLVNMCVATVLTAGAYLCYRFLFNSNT
Protocol: (§1) PTP1B inhibitory activity was measured using p-NPP as the substrate. A mixture consisting of p-NPP and PTP1B in a buffer containing 0.06 M citrate (pH 6.0), 0.1 M NaCl, 1 mM EDTA, and 1 mM DTT with or without a tested compound solution (prepared in the above buffer solution containing 30% dimethyl sulfoxide), was incubated at 37 °C for 30 min. The substrate was used at a concentration of 4 mM. The reaction was terminated by adding 20 µL of 10 M NaOH. The reaction mixture was blended by a microplate mixer for 5 min and the amount of produced p-nitrophenol was tested by measuring the absorbance at 405 nm. The blank was measured in the same way except adding a buffer solution instead of the enzyme.

[2] = biological target: T2, SHP-1 (human recombinant) (Homo sapiens, UniProt P29350); assay: SHP-1 inhibitory activity assay with p-NPP; format: biochemical; conditions: mean ± SD, three experiments, read-out: Inhibition rate (%) SHP-1
T2 construct: purchased Sigma-Aldrich Co., LLC; (St Louis, MO)
T2 sequence (P29350 whole entry): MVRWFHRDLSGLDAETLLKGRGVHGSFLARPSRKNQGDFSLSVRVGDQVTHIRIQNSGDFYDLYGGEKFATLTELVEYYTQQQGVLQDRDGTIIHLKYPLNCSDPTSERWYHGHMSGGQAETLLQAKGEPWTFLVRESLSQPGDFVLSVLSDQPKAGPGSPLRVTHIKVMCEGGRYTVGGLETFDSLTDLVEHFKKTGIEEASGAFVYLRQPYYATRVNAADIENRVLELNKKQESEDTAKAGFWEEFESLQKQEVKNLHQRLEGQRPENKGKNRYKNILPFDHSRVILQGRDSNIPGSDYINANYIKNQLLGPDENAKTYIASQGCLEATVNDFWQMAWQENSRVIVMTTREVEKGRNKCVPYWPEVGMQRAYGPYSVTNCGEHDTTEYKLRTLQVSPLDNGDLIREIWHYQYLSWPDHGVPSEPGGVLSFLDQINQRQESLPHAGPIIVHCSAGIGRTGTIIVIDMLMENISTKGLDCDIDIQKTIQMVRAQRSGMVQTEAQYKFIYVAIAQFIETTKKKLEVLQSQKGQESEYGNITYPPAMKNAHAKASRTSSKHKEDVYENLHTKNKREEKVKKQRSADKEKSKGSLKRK

[3] = biological target: T3, T-cell protein tyrosine phosphatase (TCPTP, human recombinant) (Homo sapiens, UniProt P17706); assay: TCPTP inhibitory activity assay with p-NPP; format: biochemical; conditions: mean ± SD, three experiments, read-out: Inhibition rate (%) TCPTP
T3 construct: purchased Enzo Life Sciences, Inc. (Lausen, Switzerland)
T3 sequence (P17706 1-415): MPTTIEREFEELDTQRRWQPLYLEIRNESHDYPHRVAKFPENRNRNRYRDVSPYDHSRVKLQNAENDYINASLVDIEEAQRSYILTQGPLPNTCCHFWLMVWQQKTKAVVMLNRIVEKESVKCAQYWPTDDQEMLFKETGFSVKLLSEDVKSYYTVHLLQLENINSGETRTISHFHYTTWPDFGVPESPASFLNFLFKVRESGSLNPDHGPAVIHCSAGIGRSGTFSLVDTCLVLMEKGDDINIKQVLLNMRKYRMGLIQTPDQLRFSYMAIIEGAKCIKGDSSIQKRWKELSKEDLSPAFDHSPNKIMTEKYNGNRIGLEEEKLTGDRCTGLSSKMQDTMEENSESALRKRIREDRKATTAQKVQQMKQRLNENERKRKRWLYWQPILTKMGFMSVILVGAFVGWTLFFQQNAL

[4] = biological target: T4, Vaccinia H1-related phosphatase (VHR, human recombinant) (Homo sapiens, UniProt P51452); assay: biochemical; conditions: read-out: Inhibition rate (%) VHR
T4 construct: purchased Enzo Life Sciences, Inc. (Lausen, Switzerland)
T4 sequence (P51452 whole entry): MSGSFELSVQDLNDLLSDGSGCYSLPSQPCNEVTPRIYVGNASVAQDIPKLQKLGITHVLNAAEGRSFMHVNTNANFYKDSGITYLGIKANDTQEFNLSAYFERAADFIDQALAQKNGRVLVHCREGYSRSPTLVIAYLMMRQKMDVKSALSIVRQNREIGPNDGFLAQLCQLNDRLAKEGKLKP

[5] = biological target: T1, PTP1B (human recombinant); assay: Kinetic analysis of PTP1B inhibition (Lineweaver–Burk, secondary plot); format: biochemical; conditions: for Inhibition type: Lineweaver–Burk, p-NPP 4, 8, 16 mM; for Ki: secondary plot of Lineweaver–Burk slopes
Protocol: as §1, with “enzyme. […] All compounds used for bioassay were confirmed the purity >98% by HPLC-PDA and ^1H NMR spectroscopic analyses.” for “enzyme.”
To elucidate the inhibition mode, the inhibition kinetics of compounds 1–5 were analyzed by the Lineweaver–Burk method with various substrate concentrations of p-NPP (4, 8, 16 mM). The initial reaction velocities were measured with and without the inhibitor.
(A) Lineweaver–Burk plots of compounds 1–5. The final concentration of compounds 1–5 was as follows: 1; 0, 1.0, 2.0, and 3.0 μM, 2; 0, 4.0, 6.0, and 8.0 μM, 3; 0, 1.3, 2.5, and 3.0 μM, 4; 0, 1.0, 2.0, and 3.0 μM, and 5; 0, 4.0, 6.0, and 8.0 μM. (B) The second plots of A.

[6] = biological target: T5, SHP-2 (human recombinant) (Homo sapiens, UniProt Q06124); assay: SHP-2 inhibitory activity assay with p-NPP; format: biochemical; conditions: mean ± SD, three experiments, read-out: Inhibition rate (%) SHP-2
T5 construct: purchased Sigma-Aldrich Co., LLC; (St Louis, MO)
T5 sequence (Q06124 1-593): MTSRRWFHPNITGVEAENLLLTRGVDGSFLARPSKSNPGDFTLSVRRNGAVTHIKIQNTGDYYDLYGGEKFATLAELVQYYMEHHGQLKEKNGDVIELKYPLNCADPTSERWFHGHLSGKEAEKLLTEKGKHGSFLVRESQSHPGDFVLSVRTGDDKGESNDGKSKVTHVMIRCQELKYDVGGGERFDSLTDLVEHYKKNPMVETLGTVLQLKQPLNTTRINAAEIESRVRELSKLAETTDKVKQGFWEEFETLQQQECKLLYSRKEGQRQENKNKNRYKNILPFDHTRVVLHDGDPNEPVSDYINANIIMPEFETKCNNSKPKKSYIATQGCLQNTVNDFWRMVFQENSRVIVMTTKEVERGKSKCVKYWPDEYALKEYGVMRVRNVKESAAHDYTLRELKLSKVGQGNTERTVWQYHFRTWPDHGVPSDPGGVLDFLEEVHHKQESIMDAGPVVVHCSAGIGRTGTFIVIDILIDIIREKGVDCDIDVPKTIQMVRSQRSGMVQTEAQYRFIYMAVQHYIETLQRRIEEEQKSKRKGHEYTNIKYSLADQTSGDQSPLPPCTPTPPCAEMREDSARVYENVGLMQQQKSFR

[7] = mean ± SD, three experiments, read-out: Inhibition rate (%) PTP1B

COc1cc(C2C3C=C(c4oc5cc(O)cc(O)c5c(=O)c4O)C4C2COC4(O)C3=O)ccc1O (stereo not shown) [Compound 10, Dehydrosilydianin]
IC50 [1]: > 50 µM

COc1cc([C@@H]2Oc3cc([C@H]4Oc5cc(O)cc(O)c5C(=O)[C@@H]4O)ccc3O[C@H]2CO)ccc1O [Compound 2, Silybin B]
inhibition at 12 µM ([2]; 12 μM): 34.4 ± 1.9% | inhibition at 12 µM ([3]; 12 μM): 32.1 ± 2.3% | inhibition at 12 µM [4]: 65.6 ± 4.2% | inhibition at 12 µM ([1]; 12 μM, mean ± SD, three experiments, read-out: Inhibition rate (%) PTP1B): 89 ± 2.1% | IC50 [1]: 5.65 ± 0.2 µM | Inhibition type [5]: Non-competitive | Ki [5]: 4.05 µM | inhibition at 12 µM ([6]; 12 μM): 37.5 ± 2.2%

COc1cc([C@@H]2Oc3c(O)cc([C@H]4Oc5cc(O)cc(O)c5C(=O)[C@@H]4O)cc3[C@H]2CO)ccc1O [Compound 5, Silychristin A]
inhibition at 20 µM ([2]; 20 μM): 25.9 ± 1.4% | inhibition at 20 µM ([3]; 20 μM): 32.2 ± 1.9% | inhibition at 20 µM [4]: 67.5 ± 1.4% | inhibition at 20 µM ([1]; 20 μM, mean ± SD, three experiments, read-out: Inhibition rate (%) PTP1B): 89.2 ± 2.6% | IC50 [1]: 5.58 ± 0.33 µM | Inhibition type [5]: Non-competitive | Ki [5]: 3.95 µM | inhibition at 20 µM ([6]; 20 μM): 48.6 ± 1.9%

COc1cc([C@H]2Oc3ccc([C@H]4Oc5cc(O)cc(O)c5C(=O)[C@@H]4O)cc3O[C@@H]2CO)ccc1O [Compound 3, Isosilybin A]
inhibition at 6 µM ([2]; 6.0 μM): 30.6 ± 1.8% | inhibition at 6 µM ([3]; 6.0 μM): 27.5 ± 0.8% | inhibition at 6 µM [4]: 59.2 ± 2.4% | inhibition at 6 µM ([1]; 6.0 μM, mean ± SD, three experiments, read-out: Inhibition rate (%) PTP1B): 90.7 ± 1.1% | IC50 [1]: 2.65 ± 0.13 µM | Inhibition type [5]: Non-competitive | Ki [5]: 2.25 µM | inhibition at 6 µM ([6]; 6.0 μM): 49 ± 2.1%

COc1cc(C2C(C(=O)O)C=C(C3Oc4cc(O)cc(O)c4C(=O)C3O)C3C(=O)OCC32)ccc1O (stereo not shown) [Compound 11, Silyamandin]
IC50 [1]: 17.4 ± 0.67 µM

COc1cc([C@H]2Oc3cc([C@H]4Oc5cc(O)cc(O)c5C(=O)[C@@H]4O)ccc3O[C@@H]2CO)ccc1O [Compound 1, Silybin A]
inhibition at 4 µM [2]: 33.4 ± 0.4% | inhibition at 4 µM [3]: 15.7 ± 1.9% | inhibition at 4 µM [4]: 60.6 ± 2.2% | inhibition at 4 µM [1, 7]: 90.3 ± 0.9% | IC50 [1]: 1.54 ± 0.22 µM | Inhibition type [5]: Non-competitive | Ki [5]: 1.25 µM | inhibition at 4 µM [6]: 32.7 ± 1.8%

COc1cc([C@@H]2Oc3c(O)ccc([C@H]4Oc5cc(O)cc(O)c5C(=O)[C@@H]4O)c3[C@H]2CO)ccc1O [Compound 7, Isosilychristin A]
IC50 [1]: 6.55 ± 0.09 µM

COc1cc([C@@H]2Oc3c(O)cc(-c4oc5cc(O)cc(O)c5c(=O)c4O)cc3[C@H]2CO)ccc1O [Compound 8, Dehydrosilychristin A]
IC50 [1]: 7.18 ± 0.12 µM

COc1cc([C@H]2Oc3c(O)cc([C@H]4Oc5cc(O)cc(O)c5C(=O)[C@@H]4O)cc3[C@@H]2CO)ccc1O [Compound 6, Silychristin B]
IC50 [1]: 23.9 ± 2.25 µM

COc1cc([C@@H]2Oc3ccc([C@H]4Oc5cc(O)cc(O)c5C(=O)[C@@H]4O)cc3O[C@H]2CO)ccc1O [Compound 4, Isosilybin B]
inhibition at 4 µM [2]: 22.9 ± 2.1% | inhibition at 4 µM [3]: 16.4 ± 1.5% | inhibition at 4 µM [4]: 61.4 ± 3% | inhibition at 4 µM [1, 7]: 92.1 ± 1.7% | IC50 [1]: 1.37 ± 0.22 µM | Inhibition type [5]: Non-competitive | Ki [5]: 1.03 µM | inhibition at 4 µM [6]: 50.1 ± 1.5%

COc1cc([C@@H]2[C@H]3CO[C@@]4(O)C(=O)[C@@H]2C=C([C@H]2Oc5cc(O)cc(O)c5C(=O)[C@@H]2O)[C@@H]34)ccc1O [Compound 9, Silydianin]
IC50 [1]: > 50 µM
